This is an account of results in paper PMC11596392, “Enhanced Antibacterial, Anti-Inflammatory, and Antibiofilm Activities of Tryptophan-Substituted Peptides Derived from Cecropin A-Melittin Hybrid Peptide BP100” (Molecules, 2024).

The structures appear in SMILES notation.

Assay [1] relates to MDRPA (CCARM 2095) biofilm formation. In kind it is cell-based, multidrug-resistant Pseudomonas aeruginosa. The settings on record: overnight 37 °C, crystal violet staining. An excerpt: Bacterial biofilms, comprising communities of bacterial cells encased in a matrix of polysaccharides and nucleic acids, present a significant challenge for conventional antibiotics due to the protective nature of this matrix. Biofilms can enhance bacterial resistance to antibiotics by up to 1000-fold compared to planktonic bacteria. To address this issue, there is an urgent need to discover and develop novel alternative therapeutic agents capable of effectively combating biofilm-forming bacteria. […] Our research specifically focused on evaluating the impact of BP100 and its analogs on biofilm formation and eradication using multidrug-resistant Pseudomonas aeruginosa (MDRPA), a common pathogen responsible for biofilm-mediated nosocomial infections. The adhered biomass was quantified using crystal violet staining, and the minimum biofilm inhibitory concentration (MBIC90) was determined as the lowest concentration required to inhibit 90% of biofilm growth relative to the positive control. […] Human cathelicidin LL-37 is well-documented for its potent antibiofilm properties.
The inhibitory activity of the peptides on biofilm formation was evaluated against multidrug-resistant Pseudomonas aeruginosa (MDRPA) (CCARM 2095) using a biofilm inhibition assay to determine the minimal biofilm inhibitory concentration (MBIC). Peptide solutions were serially diluted in sterile water and aliquoted (100 μL) into a 96-well Costar polypropylene plate (Corning Inc., Corning, NY, USA). An equal volume of MDRPA suspension in Mueller–Hinton Broth (MHB), adjusted to 1 × 10^6 CFU/mL, was added to each well, resulting in a final inoculum density of 5 × 10^5 CFU/mL. Following overnight incubation at 37 °C, bacterial growth was quantified by measuring the optical density (OD) at 595 nm. Planktonic cells were then discarded, and the attached biofilms were washed thrice with distilled water. Residual biofilms were stained with 0.1% crystal violet for five minutes, washed to remove non-adherent dye, and subsequently destained using 95% ethanol. The OD at 595 nm was measured again to assess the biofilm mass. Control wells contained untreated bacteria. The MBIC was defined as the lowest peptide concentration that inhibited any residual crystal violet staining or biofilm formation. All assays were conducted in triplicate to ensure reproducibility. This method allows for the quantitative assessment of the peptides’ ability to prevent biofilm formation, a critical virulence factor in many bacterial infections, particularly those caused by multidrug-resistant strains.

Assay [2] relates to preformed MDRPA (CCARM 2095) biofilms. In kind it is cell-based, multidrug-resistant Pseudomonas aeruginosa. The settings on record: 24 h treatment. The protocol:
While preventing biofilm formation on surfaces is crucial, treating established biofilm infections presents a significant challenge due to the extracellular polymeric substance (EPS) matrix hindering antibiotic penetration and the high cell density within mature biofilms. To address this challenge, we evaluated the ability of BP100 and its analogs to eradicate established MDRPA biofilms over a 24 h period. The minimum biofilm eradication concentration (MBEC90) was determined using crystal violet staining as the lowest concentration that reduced biomass by more than 90%. Among these peptides, BP5, BP6, BP7, BP8, BP9, BP11, and BP13 eradicated preformed MDRPA biofilms by more than 90% at a concentration of 8 μM (Figure 3c,d and Table 3).
The minimal biofilm eradication concentration (MBEC) for peptides against the multidrug-resistant Pseudomonas aeruginosa (MDRPA) (CCARM 2095) strain was assessed using the Calgary Biofilm Device (CBD), supplied by Innovotech, Edmonton, AB, Canada. A bacterial suspension with a density of (1 × 10^6) CFU/mL in (150 µL) of Luria–Bertani (LB) media was dispensed into each well of a 96-well microtiter plate, which was equipped with a peg lid (Innovotech, product code: 19111). This plate was incubated at 37 °C for 24 h with agitation at 110 rpm, promoting biofilm formation on the pegs. Subsequently, the peg lid was washed with phosphate-buffered saline (PBS, 0.01 M) and relocated to a fresh plate containing varying peptide concentrations (200 µL per well). The biofilms were then subjected to these peptides under the same incubation conditions. After another PBS rinse, the peg lid was moved to a recovery plate filled with (200 µL) of LB media per well. To detach the biofilms from the pegs, the recovery plate underwent sonication in a water bath for 10 to 15 min. Finally, the recovery plate was incubated at 37 °C for 24 h with agitation at 110 rpm, allowing any surviving bacteria to proliferate and cause turbidity. The MBEC is defined as the lowest concentration of peptides that inhibited turbidity formation in the recovery plate in comparison to sterility controls. This experiment was conducted in triplicate, and the median value from each trial was recorded.

Assay [3] deals with bacterial strains. In words: Geometric mean (GM) of MIC values over the bacterial strains. The settings on record: over the 11 bacterial strains of Table 2. In kind it is cell-based. The protocol:
The antibacterial efficacy of the synthesized peptides was evaluated by determining the minimal inhibitory concentrations (MICs) against six standard bacterial strains and five drug-resistant bacterial strains using the Clinical and Laboratory Standards Institute (CLSI) microdilution method. Melittin served as the positive control.
The minimal inhibitory concentrations (MICs) of the peptides against bacterial strains were determined using a modified broth-microdilution method in accordance with the National Committee for Clinical Laboratory Standards (NCCLS) guidelines. Overnight cultures were diluted in cation-adjusted Mueller–Hinton Broth (MHB) to achieve an inoculum density of 2 × 10^6 CFU/mL. A two-fold serial dilution of the peptide solution (100 μL) was introduced into microtiter plates, followed by the addition of 100 μL of bacterial suspension. The plates were then incubated at 37 °C for 24 h to determine the MICs. Wells containing only culture media served as negative controls, while those with added bacteria functioned as positive controls. The MIC, expressed in μM, was defined as the lowest peptide concentration that prevented visible bacterial growth. […]

Assay [4] relates to MDRPA (CCARM 2095). In kind it is cell-based, multidrug-resistant Pseudomonas aeruginosa. The settings on record: checkerboard, 37 °C, 24 h. An excerpt: Multidrug-resistant pathogens pose a significant challenge to both human and animal health. The steady decline in the discovery of new antibiotics has exacerbated the difficulty in developing effective therapies for infection control. Consequently, there is an urgent need for alternative strategies that can combat pathogens without inducing drug resistance. One such strategy involves the combination of different antimicrobial agents. The effects of antimicrobial peptides (AMPs) combined with conventional antibiotics often surpass those of individual drugs. […] The primary advantage of synergistic combinations lies in their ability to lower the concentration of each antimicrobial agent required for effective antibacterial activity. This approach offers several benefits, including reduced production costs, a decreased risk of adverse side effects, diminished toxicity to mammalian cells, and a lower likelihood of drug resistance development. In light of these potential advantages, we investigated the synergistic effects of BP100 and the five selected analogs in combination with ciprofloxacin against multidrug-resistant Pseudomonas aeruginosa (MDRPA) using a checkerboard synergy assay. Ciprofloxacin, an antibiotic belonging to the fluoroquinolone class, is commonly used to treat various bacterial infections, including urinary tract infections and pneumonia. It exerts a bactericidal effect by inhibiting bacterial DNA gyrase, thereby disrupting DNA replication and transcription […]. The fractional inhibitory concentration index (FICI) results for BP100 and its selected analogs, when paired with ciprofloxacin against MDRPA, are detailed in Table 5. […] Such combinations may offer a valuable approach to enhancing the efficacy of existing antibiotics and potentially mitigating the development of antimicrobial resistance.
The synergistic effects of peptide-antibiotic combinations against methicillin-resistant Staphylococcus aureus (MRSA; CCARM 3089) and multidrug-resistant Pseudomonas aeruginosa (MDRPA; CCARM 2095) were evaluated using the fractional inhibitory concentration index (FICI) method. Antibiotics and peptides were subjected to two-fold serial dilutions, mixed in equal ratios, and combined with a bacterial suspension adjusted to approximately 10^6 CFU/mL. The resulting mixtures were distributed into microplate wells and incubated at 37 °C with orbital shaking at 200 rpm for 24 h. Bacterial growth was monitored by measuring the optical density at 600 nm (OD600). The FICI was calculated using the broth microdilution checkerboard method, defined as the sum of the ratios of the minimum inhibitory concentrations (MICs) of each agent in combination to their individual MICs, according to the following equation: FICI = (MIC of antibiotic in combination/MIC of antibiotic alone) + (MIC of peptide in combination/MIC of peptide alone). The interpretation of FICI values was as follows: FICI ≤ 0.5 indicates synergy; 0.5 < FICI ≤ 1.0 indicates an additive effect; 1.0 < FICI ≤ 4.0 indicates indifference; and FICI > 4.0 indicates antagonism.

In turn, `CC[C@H](C)[C@H](NC(=O)[C@H](CCCCN)NC(=O)[C@H](CCC(=O)O)NC(=O)[C@H](CCCCN)NC(=O)[C@H](CO)NC(=O)[C@H](CCCCN)NC(=O)[C@H](CCCNC(=N)N)NC(=O)[C@H](Cc1ccccc1)NC(=O)[C@H](Cc1ccccc1)NC(=O)[C@H](CC(=O)O)NC(=O)CNC(=O)[C@H](CC(C)C)NC(=O)[C@@H](N)CC(C)C)C(=O)NCC(=O)N[C@@H](CCCCN)C(=O)N[C@@H](CCC(=O)O)C(=O)N[C@@H](Cc1ccccc1)C(=O)N[C@@H](CCCCN)C(=O)N[C@@H](CCCNC(=N)N)C(=O)N[C@H](C(=O)N[C@H](C(=O)N[C@@H](CCC(N)=O)C(=O)N[C@@H](CCCNC(=N)N)C(=O)N[C@H](C(=O)N[C@@H](CCCCN)C(=O)N[C@@H](CC(=O)O)C(=O)N[C@@H](Cc1ccccc1)C(=O)N[C@@H](CC(C)C)C(=O)N[C@@H](CCCNC(=N)N)C(=O)N[C@@H](CC(N)=O)C(=O)N[C@@H](CC(C)C)C(=O)N[C@H](C(=O)N1CCC[C@H]1C(=O)N[C@@H](CCCNC(=N)N)C(=O)N[C@H](C(=O)N[C@@H](CCC(=O)O)C(=O)N[C@@H](CO)C(=O)O)[C@@H](C)O)C(C)C)[C@@H](C)CC)C(C)C)[C@@H](C)CC` [LL-37, reference compound] had an MBIC50 in assay [1] (50% inhibition) of 32 to 64 µM. The same compound showed an MBIC90 in assay [1] (90% inhibition) of 64 µM. In assay [2] (50% eradication), this compound came in with an MBEC50 of 32 µM. Besides, the MBEC90 in assay [2] (90% eradication) was above 64 µM.

As for `CC[C@H](C)[C@H](NC(=O)CN)C(=O)NCC(=O)N[C@@H](C)C(=O)N[C@H](C(=O)N[C@@H](CC(C)C)C(=O)N[C@@H](CCCCN)C(=O)N[C@H](C(=O)N[C@@H](CC(C)C)C(=O)N[C@H](C(=O)N[C@H](C(=O)NCC(=O)N[C@@H](CC(C)C)C(=O)N1CCC[C@H]1C(=O)N[C@@H](C)C(=O)N[C@@H](CC(C)C)C(=O)N[C@H](C(=O)N[C@@H](CO)C(=O)N[C@@H](Cc1c[nH]c2ccccc12)C(=O)N[C@H](C(=O)N[C@@H](CCCCN)C(=O)N[C@@H](CCCNC(=N)N)C(=O)N[C@@H](CCCCN)C(=O)N[C@@H](CCCNC(=N)N)C(=O)N[C@@H](CCC(N)=O)C(=O)N[C@@H](CCC(N)=O)C(N)=O)[C@@H](C)CC)[C@@H](C)CC)[C@@H](C)O)[C@@H](C)O)C(C)C)C(C)C` [ME, melittin], in assay [3], the “GM (geometric mean of MIC values)” value was 24.0 µM.

Take `O=C(O)c1cn(C2CC2)c2cc(N3CCNCC3)c(F)cc2c1=O` [ciprofloxacin, reference compound]: the “MICB: MIC of ciprofloxacin alone” value in assay [4] was 2048 µg/mL.
